Consider two compounds from patent publication US7498329B2, “Salt form of dopamine agonist” (Pfizer Inc., priority 2005, dated 2009).

Series [1] addresses T1, dopamine D3 receptor (Homo sapiens, UniProt P35462). As to conditions: according to WO2004/052372; cited from earlier work.
The nature of series [2]: Water sorption / hygroscopicity (Dynamic Vapour Sorption). It is filed as physicochemical. Here is the method:
Water sorption of 5-[(2R,5S)-5-methyl-4-propylmorpholin-2-yl]pyridin-2-amine di-S-camsylate monohydrate) at 30° C. Sorption at 90% RH is 0.316%(w/w) of dry weight. This value relates to non-bound water and is in addition to that involved in the crystal lattice.
Dynamic Vapour Sorption (DVS): Automated Sorption Analyser Model DVS-1. Manufactured by Surface Measurements Systems Ltd. UK. Solid (10-20 mg) is exposed to controlled relative humidity (% RH) environment and the weight change recorded over time. The humidity was stepped from 0 to 90 to 0% RH in 15% RH intervals. A rate of sorption of 0.0005%/min needs to be achieved at each humidity before exposure to the next humidity in the method. When a sample is deliquescent equilibrium sorption is not always achieved.

The target in series [3] is T1, dopamine D3 receptor. Nature of the series: Functional activity at the dopamine D3 receptor (methods of WO 2004/052372). It is filed as cell-based. Here is the method: Activity at the dopamine D3 receptor may be determined using the methods described in WO 2004/052372, which is incorporated herein by reference. […] Selectivity is calculated as the D2 EC50 value divided by the D3 EC50 value.

A short description of series [4]: Hydrate kinetic stability at 0% RH (isothermal thermogravimetric analysis). It is filed as physicochemical. The method, then: Isothermal gravimetric analysis of 5-[(2R,5S)-5-methyl-4-propylmorpholin-2-yl]pyridin-2-amine di-S-camsylate monohydrate at 40, 45, 80 and 85° C. Material was held at a selected temperature with a 0% RH flow of nitrogen. 5-[(2R,5S)-5-methyl-4-propylmorpholin-2-yl]pyridin-2-amine di S-camsylate salt dehydrates at 85° C., 0% RH. Many hydrates would be lost at 30° C./0% RH.
ThermoGravimetric Analysis (TGA): Manufactured by TA instruments, model 2950. Approximately 8 mg of the sample was held at analysis temperature in an open pan with 0% RH nitrogen flow for a minimum of 30 min. Results are representative of the kinetic stability of the hydrate over the period of time the sample was exposed.

The nature of series [5]: Hydrate stability under reduced partial pressure (vacuum drying conditions). As to conditions: reduced partial pressure at 40° C. It is filed as physicochemical. From the text:
Typically a pharmaceutical hydrate would be expected to dehydrate within a few hours of exposure to 0% RH. […] This is a much higher temperature than would normally be expected for a hydrated salt. Such kinetic stability is desirable for allowing the compound to be successfully milled prior to formulation. • Many hydrates are not stable to the harsh vacuum drying conditions required in the isolation of a pharmaceutical drug product. However, 5-[(2R,5S)-5-methyl-4-propylmorpholin-2-yl]pyridin-2-amine di-S-camsylate monohydrate would be stable in such a process as, upon exposure to reduced partial pressure at 40° C., the hydrate remains down to 10 mbar.

T1 sequence (P35462 whole entry, species assumed): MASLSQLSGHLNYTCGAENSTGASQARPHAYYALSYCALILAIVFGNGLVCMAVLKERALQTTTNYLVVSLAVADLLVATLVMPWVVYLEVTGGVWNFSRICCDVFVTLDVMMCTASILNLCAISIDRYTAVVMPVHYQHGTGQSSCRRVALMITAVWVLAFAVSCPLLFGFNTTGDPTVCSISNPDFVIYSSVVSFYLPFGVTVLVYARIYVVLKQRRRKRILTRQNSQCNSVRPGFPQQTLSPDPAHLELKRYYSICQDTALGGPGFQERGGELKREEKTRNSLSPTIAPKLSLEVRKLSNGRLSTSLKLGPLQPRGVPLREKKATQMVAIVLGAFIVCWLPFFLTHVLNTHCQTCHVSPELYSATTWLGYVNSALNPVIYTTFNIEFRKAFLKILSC

Regarding `CCCN1C[C@@H](c2ccc(N)nc2)OC[C@@H]1C` (single isomer, unassigned), in series [1], the “D3 agonist activity (in words)” value is recorded as “selective D3 agonist”. For the same compound, in series [2], the deliquescence result is reported as “deliquescent”.

One may read the EC50 as the concentration that produces a half-maximal response. The compound `CCCN1C[C@@H](c2ccc(N)nc2)OC[C@@H]1C` [5-[(2R,5S)-5-methyl-4-propylmorpholin-2-yl]pyridine-2-amine, di((1S)-10-camphorsulfonate)monohydrate] returned an EC50 in series [3] of 21 nM. The “selectivity for D3 over D2” value in series [3] (D2 EC50 value divided by the D3 EC50 value) is given as 476 fold. Besides, the “dehydration of the hydrate” value in series [4] (after 3.5 hours, 0% relative humidity (RH) at 30° C.) is given as “does not dehydrate”. Besides, in series [4] (heating in a flow of 0% RH (nitrogen)), the “temperature at which the dehydration event was observed” value amounted to 85 °C. Also, in series [2], the deliquescence result is listed as “not deliquescent” and the hygroscopicity result is listed as “non-hygroscopic”. Also, in series [2] (90% RH, 30° C., non-bound water), the water sorption is given as 0.316 %(w/w) of dry weight. For the same compound, in series [5], the “pressure down to which the hydrate remains” value is 10 mbar.
